Results published in ChEMBL document CHEMBL1201862, “PubChem BioAssay data set” (2004).
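A five-concentration, 48-hour dose response in 96-well plates underlies each endpoint, interpolated linearly between surrounding concentrations. Here, GI50 denotes the concentration required for 50% inhibition of growth.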 Active and inactive are the calls of the source. No stated cut-off is given here; in the data, active = GI50 up to about 1.1 µM and inactive = higher.

Assays:
Test in all cases: NCI-60 cell line screen, 48 h
CCRF-CEM = system: CCRF-CEM
OVCAR-3 = system: OVCAR-3
OVCAR-4 = system: OVCAR-4
DU-145 = system: DU-145
SNB-19 = system: SNB-19
M14 = system: M14
CAKI-1 = system: CAKI-1
HOP-62 = system: HOP-62
NCI-H460 = system: NCI-H460
SK-MEL-5 = system: SK-MEL-5
U-251 = system: U-251
NCI-H23 = system: NCI-H23
NCI-H226 = system: NCI-H226
A498 = system: A498
EKVX = system: EKVX
ACHN = system: ACHN
COLO 205 = system: COLO 205
OVCAR-8 = system: OVCAR-8
K562 = system: K562
RXF 393 = system: RXF 393

SMILES	GI50 (CCRF-CEM)	GI50 (OVCAR-3)	GI50 (OVCAR-4)	GI50 (DU-145)	GI50 (SNB-19)	GI50 (M14)	GI50 (CAKI-1)	GI50 (HOP-62)	GI50 (NCI-H460)	GI50 (SK-MEL-5)	GI50 (U-251)	GI50 (NCI-H23)	GI50 (NCI-H226)	GI50 (A498)	GI50 (EKVX)	GI50 (ACHN)	GI50 (COLO 205)	GI50 (OVCAR-8)	GI50 (K562)	GI50 (RXF 393)
Cc1nc(Cl)c(C)c(Cl)n1	18.7 µM (inactive)	> 100 µM (inactive)	52.7 µM (inactive)	> 100 µM (inactive)	> 100 µM (inactive)	37.7 µM (inactive)	0.0216 µM (active)	> 77.4 µM (inactive)	> 100 µM (inactive)	> 59 µM (inactive)	> 100 µM (inactive)	35.3 µM (inactive)	> 100 µM (inactive)	> 100 µM (inactive)	> 27 µM (inactive)	> 100 µM (inactive)	> 100 µM (inactive)	> 100 µM (inactive)	18.3 µM (inactive)	> 100 µM (inactive)
CCOC(=O)CCN1C(=O)c2c(NC(=O)C(=O)O)cccc2S1(=O)=O	> 100 µM (inactive)		> 100 µM (inactive)	> 100 µM (inactive)	> 100 µM (inactive)	> 100 µM (inactive)	> 100 µM (inactive)	> 100 µM (inactive)	> 100 µM (inactive)	> 10 µM (inactive)	> 100 µM (inactive)	> 100 µM (inactive)	> 100 µM (inactive)	> 100 µM (inactive)	> 100 µM (inactive)	> 100 µM (inactive)	> 100 µM (inactive)	> 100 µM (inactive)	> 100 µM (inactive)	> 100 µM (inactive)
O=C(Nc1ccccc1C(=O)NCCCO)/C(=C/c1ccccc1O)NC(=O)c1ccccc1	> 100 µM (inactive)	48.8 µM (inactive)	56.8 µM (inactive)	> 81.8 µM (inactive)	16.9 µM (inactive)	55.6 µM (inactive)	> 100 µM (inactive)	20.5 µM (inactive)	> 72.1 µM (inactive)	> 100 µM (inactive)	30 µM (inactive)	36.1 µM (inactive)	39.3 µM (inactive)	> 91.2 µM (inactive)	65.6 µM (inactive)	30.8 µM (inactive)	> 100 µM (inactive)	> 42.7 µM (inactive)	> 100 µM (inactive)	28.1 µM (inactive)
CCOC(=O)NC(Nc1ncccn1)(C(F)(F)F)C(F)(F)F	> 100 µM (inactive)	> 100 µM (inactive)		> 100 µM (inactive)	> 100 µM (inactive)	> 100 µM (inactive)		> 100 µM (inactive)	> 100 µM (inactive)		> 100 µM (inactive)	> 100 µM (inactive)	> 100 µM (inactive)	> 100 µM (inactive)	> 100 µM (inactive)	> 100 µM (inactive)			> 100 µM (inactive)	> 100 µM (inactive)
